Measurements: ChEMBL document CHEMBL1932978, “Inhibitors of human 2,3-oxidosqualene cyclase (OSC) discovered by virtual screening” (Bioorg Med Chem Lett, 2012)

What was measured:
[1] = biological target: T1, Lanosterol synthase (Homo sapiens) (UniProt P48449); experiment: Inhibition of human OSC expressed in Saccharomyces cerevisiae at 20 uM by gas chromatography relative to LDAO2
T1 sequence (whole entry): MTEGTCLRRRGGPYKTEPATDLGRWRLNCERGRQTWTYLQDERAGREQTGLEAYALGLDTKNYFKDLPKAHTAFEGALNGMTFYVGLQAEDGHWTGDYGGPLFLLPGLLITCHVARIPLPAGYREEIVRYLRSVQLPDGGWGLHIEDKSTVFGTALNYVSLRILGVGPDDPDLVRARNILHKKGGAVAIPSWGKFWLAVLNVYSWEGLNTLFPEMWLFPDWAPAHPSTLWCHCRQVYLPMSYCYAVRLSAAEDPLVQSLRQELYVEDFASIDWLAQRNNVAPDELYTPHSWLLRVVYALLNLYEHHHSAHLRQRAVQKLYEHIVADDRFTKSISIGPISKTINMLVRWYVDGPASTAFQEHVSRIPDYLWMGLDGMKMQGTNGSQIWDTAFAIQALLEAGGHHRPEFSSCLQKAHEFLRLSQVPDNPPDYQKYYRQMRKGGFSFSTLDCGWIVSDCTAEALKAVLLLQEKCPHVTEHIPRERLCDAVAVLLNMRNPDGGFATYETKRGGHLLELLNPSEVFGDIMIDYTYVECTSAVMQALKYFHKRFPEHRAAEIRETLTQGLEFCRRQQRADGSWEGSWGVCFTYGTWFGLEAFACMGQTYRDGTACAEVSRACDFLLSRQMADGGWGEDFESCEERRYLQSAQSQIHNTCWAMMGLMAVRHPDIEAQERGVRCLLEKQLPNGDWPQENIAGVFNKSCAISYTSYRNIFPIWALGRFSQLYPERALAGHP

Lanosterol synthase = biological target: T2, Lanosterol synthase (Homo sapiens, UniProt P48449); experiment: Inhibition of human OSC expressed in Saccharomyces cerevisiae by gas chromatography
T2 sequence (P48449 whole entry): T1 sequence (whole entry)

Row | SMILES | inhibition [1] | IC50 (Lanosterol synthase)
1 | CN(C)Cc1ccc(CNC(=O)c2ccc(C(F)(F)F)cc2)cc1 | 101% | 1.38 µM
2 | S=C(NCc1ccccc1)Nc1ccc(Cc2ccncc2)cc1 | 96% | 4.75 µM
3 | CCCCCCCCCCCC[N+](C)(C)[O-] | 100% | 6.31 µM
4 | O=C(CCc1ccc(CN2CCCC2)cc1)Cn1cnc2sc(-c3ccccc3)cc2c1=O | 87% | 5.02 µM
5 | O=C(Cc1ccc(Cl)cc1)c1ccc(C(=O)NCCCn2ccnc2)[nH]1 | 59% | –

Now from value to compound:

Row | inhibition [1] | IC50 (Lanosterol synthase) | SMILES
6 | 97% | 3.12 µM | CN(C)Cc1ccc(CNC(=O)Nc2ccc(Cl)cc2)cc1
7 | 83% | 10.8 µM | CN(C)Cc1ccc(CNC(=O)COc2ccc3ccccc3c2)cc1
8 | 77% | – | CN(C)Cc1ccc(CNCc2cnn(-c3ccccc3)n2)cc1
9 | 27% | – | Cc1cc(CNCc2ccc(CN(C)C)cc2)c(C)n1CC(C)C
10 | 75% | – | COc1ccc(-n2c(C)cc(CNCc3ccc(CN(C)C)cc3)c2C)cc1
